Counter-ions that a name gives are not always drawn.
Target: T1, Human IP6K1 (Homo sapiens, UniProt Q92551)
T1 construct: GST (N, cleaved yes); made in house; host or cells: C43 E. coli, pGEX-6P-2
Assay: IP6K1 high-throughput screen of the Sigma LOPAC (ADP-Glo Max, single point);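 further: final compound concentration 10µM in 5% DMSO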
Type: biochemical

[1] = LOPAC single-point screen, ADP-Glo Max raw signal per well
[2] = LOPAC single-point screen, Z-score from raw signal with plate average and StDev
[3] = LOPAC single-point screen, ADP-Glo Max luminescence raw signal per well
[4] = LOPAC single-point screen, Z-score relative to plate average and StDev
[5] = Sigma LOPAC single-point screen, ADP-Glo Max raw signal per well
[6] = Sigma LOPAC single-point screen, Z-score from plate average and StDev
[7] = LOPAC single-point screen, Z-score against plate average and StDev
[8] = LOPAC single-point screen, Z-score from plate average and StDev

T1 sequence (Q92551 whole entry): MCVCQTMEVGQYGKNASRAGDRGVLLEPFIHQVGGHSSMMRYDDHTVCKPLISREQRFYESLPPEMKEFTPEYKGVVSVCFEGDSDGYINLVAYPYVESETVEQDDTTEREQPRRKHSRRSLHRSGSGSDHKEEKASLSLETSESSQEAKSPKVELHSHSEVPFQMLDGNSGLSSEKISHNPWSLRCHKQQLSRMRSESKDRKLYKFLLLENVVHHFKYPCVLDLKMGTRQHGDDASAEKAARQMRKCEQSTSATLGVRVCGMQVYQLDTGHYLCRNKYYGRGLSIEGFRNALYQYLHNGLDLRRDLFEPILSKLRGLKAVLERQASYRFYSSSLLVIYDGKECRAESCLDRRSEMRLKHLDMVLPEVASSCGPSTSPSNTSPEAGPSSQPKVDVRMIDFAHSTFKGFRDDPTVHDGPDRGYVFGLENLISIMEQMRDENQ

## Br.C=CCN1CCc2cc(O)c(O)cc2C(c2ccc(O)cc2)C1 (racemic) [(±)-SKF 38393, N-allyl-, hydrobromide]
[1]
  Raw Signal: 54138
[2]
  Z-score: -0.3664

## CN1C2CCC1CC(NC(=O)c1nn(C)c3ccccc13)C2.O=C(O)/C=C\C(=O)O (stereo not drawn) [LY-278,584 maleate]
[3]
  Raw Signal: 49124
[4]
  Z-score: -0.8854

## CC(=O)O[C@H]1C[C@@H]2CC[C@@H]3[C@H](CC[C@@]4(C)[C@H]3C[C@H]([N+]3(C)CCCCC3)[C@@H]4OC(C)=O)[C@@]2(C)C[C@@H]1[N+]1(C)CCCCC1 [Pancuronium bromide]
[5]
  Raw Signal: 59072
[6]
  Z-score: 0.7861

## C[N+](C)(C)CCCCCC[N+](C)(C)C [Hexamethonium bromide]
[1]
  Raw Signal: 55496
[7]
  Z-score: 0.06681

## O=C(CCCN1CC=C(n2c(=O)[nH]c3ccccc32)CC1)c1ccc(F)cc1 [Droperidol]
[3]
  Raw Signal: 49359
[4]
  Z-score: -1.18

## Cl.NO [Hydroxylamine hydrochloride]
[3]
  Raw Signal: 61813
[8]
  Z-score: 1.35

## CCCC1O[C@@H]2C[C@H]3[C@@H]4CCC5=CC(=O)C=C[C@]5(C)[C@H]4[C@@H](O)C[C@]3(C)[C@]2(C(=O)CO)O1 (stereo partly drawn) [Budesonide]
[3]
  Raw Signal: 54430
[4]
  Z-score: -0.6135

## Cl.Nc1ccn([C@@H]2O[C@H](CO)[C@@H](O)[C@@H]2O)c(=O)n1
[3]
  Raw Signal: 65878
[8]
  Z-score: 1.403

## CCN1CCC[C@H]1CNC(=O)c1c(O)c(Cl)cc(Cl)c1OC.O=C(O)C(O)C(O)C(=O)O (racemic) [S(+)-Raclopride L-tartrate]
[5]
  Raw Signal: 59305
[6]
  Z-score: 0.6375

## CN1C[C@@H](NS(=O)(=O)N(C)C)C[C@@H]2c3cccc4c3c(cn4C)C[C@H]21 [Mesulergine hydrochloride]
[1]
  Raw Signal: 53840
[2]
  Z-score: -0.093

## CNC(=C[N+](=O)[O-])NCCSCc1ccc(CN(C)C)o1 [Ranitidine hydrochloride]
[1]
  Raw Signal: 57122
[7]
  Z-score: 0.2134

## C#CCN1C(C)=C(C(=O)OC)C(c2cccc([N+](=O)[O-])c2)C(C(=O)OCC)=C1C (stereo not drawn) [MRS 1845]
[1]
  Raw Signal: 54765
[7]
  Z-score: 0.06242

## C[C@H](Cc1ccc2c(c1)OC(C(=O)[O-])(C(=O)[O-])O2)NC[C@H](O)c1cccc(Cl)c1.[Na+].[Na+] [CL 316,243]
[1]
  Raw Signal: 56247
[2]
  Z-score: -0.2934

## N=C(NCCC[C@H](N)C(=O)O)N[N+](=O)[O-] [NG-Nitro-L-arginine]
[5]
  Raw Signal: 57372
[6]
  Z-score: 0.5005

## CCCCC#Cc1nc(N)c2ncn([C@@H]3O[C@H](C(=O)NCC)[C@@H](O)[C@H]3O)c2n1 [HE-NECA]
[5]
  Raw Signal: 57534
[6]
  Z-score: 0.4807

## CC(CCc1ccccc1)NCC(O)c1ccc(O)c(C(N)=O)c1 (stereo not drawn) [Labetalol hydrochloride]
[1]
  Raw Signal: 53329
[2]
  Z-score: -0.1789

## O=c1[nH]c2ccccc2n1CCCN1CCC(n2c(=O)[nH]c3cc(Cl)ccc32)CC1 [Domperidone]
[3]
  Raw Signal: 51707
[4]
  Z-score: -0.7027

## CC(C)C[C@H](NP(=O)([O-])O[C@H]1O[C@H](C)[C@@H](O)[C@H](O)[C@@H]1O)C(=O)N[C@@H](Cc1c[nH]c2ccccc12)C(=O)[O-].[Na+].[Na+] [Phosphoramidon disodium]
[1]
  Raw Signal: 56521
[7]
  Z-score: 0.0966

## CCCn1c(=O)c2[nH]c(C3CCCC3)nc2n(CCCOC(=O)c2ccc(S(=O)(=O)F)cc2)c1=O [FSCPX]
[3]
  Raw Signal: 51325
[4]
  Z-score: -0.7803

## Fc1ccc(C(c2ccc(F)cc2)N2CCN(C/C=C/c3ccccc3)CC2)cc1 [Flunarizine dihydrochloride]
[5]
  Raw Signal: 58645
[6]
  Z-score: 0.7063

## Cl.N=C(N)NC(=N)Nc1cccc(Cl)c1
[3]
  Raw Signal: 49824
[4]
  Z-score: -1.085

## CC(=O)[C@H]1CC[C@H]2[C@@H]3CC[C@H]4C[C@H](O)CC[C@]4(C)[C@H]3CC[C@]12C [5alpha-Pregnan-3alpha-ol-20-one]
[1]
  Raw Signal: 55941
[7]
  Z-score: -0.01609

## Cl.NCCc1ccc(O)cc1 [4-Hydroxyphenethylamine hydrochloride]
[1]
  Raw Signal: 54724
[2]
  Z-score: -0.2525

## OCCN(CCO)c1nc(N2CCCCC2)c2nc(N(CCO)CCO)nc(N3CCCCC3)c2n1 [Dipyridamole]
[3]
  Raw Signal: 52429
[4]
  Z-score: -0.5561

## Br.CN1CCc2cc(O)c(O)cc2C(c2ccccc2)C1 (stereo not drawn) [SKF 75670 hydrobromide]
[1]
  Raw Signal: 56113
[7]
  Z-score: 0.01733

## Cc1cn([C@H]2C[C@H](N=[N+]=[N-])[C@@H](CO)O2)c(=O)[nH]c1=O [3 -Azido-3 -deoxythymidine]
[5]
  Raw Signal: 61635
[6]
  Z-score: 0.6555

## O=[N+]([O-])c1cccc2c(Br)n[nH]c12 [3-Bromo-7-nitroindazole]
[3]
  Raw Signal: 68484
[8]
  Z-score: 1.862

## CC(C)NC[C@H](O)COc1ccc(CC(N)=O)cc1 [S(-)-Atenolol]
[1]
  Raw Signal: 56960
[2]
  Z-score: -0.1679

## NC(=Nc1ccccc1)NC(=O)c1nc(Cl)c(N)nc1N [Phenamil methanesulfonate]
[3]
  Raw Signal: 52022
[4]
  Z-score: -0.7775

## CN1CCC(=C2c3ccccc3CC(=O)c3sccc32)CC1 [Ketotifen fumarate]
[3]
  Raw Signal: 50782
[4]
  Z-score: -0.6068

## O=C(O)CCCc1ccc(N(CCCl)CCCl)cc1 [Chlorambucil]
[1]
  Raw Signal: 57590
[7]
  Z-score: -0.05691

## Nc1nc(Nc2ccccc2)nc2c1ncn2[C@@H]1O[C@H](CO)[C@@H](O)[C@H]1O [2-Phenylaminoadenosine]
[1]
  Raw Signal: 55292
[2]
  Z-score: -0.1422

## COc1cc(C(O)CN)ccc1O.Cl (racemic) [(±)-Normetanephrine hydrochloride]
[1]
  Raw Signal: 54540
[7]
  Z-score: 0.02461

## O=c1c(O)c(-c2ccc(O)cc2O)oc2cc(O)cc(O)c12 [Morin]
[3]
  Raw Signal: 34376
[4]
  Z-score: -3.363

## COc1cc2c(CCNC(C)=O)c[nH]c2cc1O [6-Hydroxymelatonin]
[3]
  Raw Signal: 52038
[4]
  Z-score: -0.6355

## COc1ccccc1N1CCNCC1.Cl
[1]
  Raw Signal: 57311
[7]
  Z-score: 0.2501

## O=C(CCCN1CCC(O)(c2ccc(Cl)cc2)CC1)c1ccc(F)cc1 [Haloperidol]
[3]
  Raw Signal: 51923
[4]
  Z-score: -0.6588

## Cl.c1ccc2nc(C3=NCCN3)ccc2c1 [BU224 hydrochloride]
[5]
  Raw Signal: 61573
[6]
  Z-score: 0.6446

## N[C@@H](CCC(=O)N[C@@H](CSN=O)C(=O)NCC(=O)O)C(=O)O [S-Nitrosoglutathione]
[1]
  Raw Signal: 53456
[2]
  Z-score: -0.1575

## O=C(CCc1ccc(O)cc1)c1c(O)cc(O)cc1O [Phloretin]
[5]
  Raw Signal: 58655
[6]
  Z-score: 0.5112

## CC[C@H]1CN2CCc3cc(OC)c(OC)cc3[C@@H]2C[C@@H]1C[C@H]1NCCc2cc(OC)c(OC)cc21 [Emetine dihydrochloride hydrate]
[1]
  Raw Signal: 52998
[2]
  Z-score: -0.4405

## Cc1cc(C(C)(C)C)cc(C)c1CC1=NCCN1 [Xylometazoline hydrochloride]
[1]
  Raw Signal: 57404
[7]
  Z-score: 0.2681

## CC(C)(C)NCC(O)c1ccc(O)c(CO)c1 (stereo not drawn) [Salbutamol]
[2]
  Z-score: -0.2712

## NC[C@H](O)c1ccc(O)c(O)c1.O=C(O)C(O)C(O)C(=O)O [L(-)-Norepinephrine bitartrate]
[3]
  Raw Signal: 29897
[4]
  Z-score: -4.934

## N#CC(C#N)=C(N)/C(C#N)=C/c1cc(O)c(O)c(O)c1 [Tyrphostin 51]
[3]
  Raw Signal: 44032
[4]
  Z-score: -2.33

## CC#C[C@]1(O)CC[C@H]2[C@@H]3CCC4=CC(=O)CCC4=C3[C@@H](c3ccc(N(C)C)cc3)C[C@@]21C [Mifepristone]
[5]
  Raw Signal: 60991
[6]
  Z-score: 1.109

## CCCN(CCC)C(=O)C(CCC(=O)O)NC(=O)c1ccccc1 (stereo not drawn) [Proglumide]
[1]
  Raw Signal: 53192
[2]
  Z-score: -0.2019

## Cc1cn([C@H]2C=C[C@@H](CO)O2)c(=O)[nH]c1=O [2 ,3 -didehydro-3 -deoxythymidine]
[1]
  Raw Signal: 54462
[2]
  Z-score: -0.1432

## N#C/C(=C\c1ccc(O)c(O)c1)C(=O)NCc1ccccc1 [Tyrphostin AG 490]
[1]
  Raw Signal: 54184
[2]
  Z-score: -0.3574

## OCCN1CCN(CCCN2c3ccccc3Sc3ccc(C(F)(F)F)cc32)CC1 [Fluphenazine dihydrochloride]
[5]
  Raw Signal: 57313
[6]
  Z-score: 0.4358

## CC(C)c1ccc2c(c1)c(SC(C)(C)C)c(CC(C)(C)C(=O)O)n2Cc1ccc(Cl)cc1 [MK-886]
[1]
  Raw Signal: 53257
[2]
  Z-score: -0.191

## NCCNC(=O)Cc1ccc(NC(=O)Cc2ccc(Nc3ncnc4c3ncn4[C@@H]3O[C@H](CO)[C@@H](O)[C@H]3O)cc2)cc1 [Adenosine amine congener]
[1]
  Raw Signal: 58651
[7]
  Z-score: 0.13

## N#CC(C#N)=C(N)/C(C#N)=C/c1ccc(O)cc1 [Tyrphostin AG 112]
[3]
  Raw Signal: 52903
[4]
  Z-score: -0.6063

## Clc1ccc(C(c2ccc(Cl)cc2)n2cc[n+](CC(OCc3ccc(Cl)cc3Cl)c3ccc(Cl)cc3Cl)c2)cc1 (stereo not drawn) [Calmidazolium chloride]
[1]
  Raw Signal: 57343
[2]
  Z-score: -0.1004

## CN1CCN(C2=Nc3cc(Cl)ccc3Nc3ccccc32)CC1 [Clozapine]
[3]
  Raw Signal: 54825
[4]
  Z-score: -0.5439

## C[Se]C[C@H](N)C(=O)O.Cl [Se-(methyl)selenocysteine hydrochloride]
[1]
  Raw Signal: 55528
[7]
  Z-score: 0.1906

## CC(N)Cc1c[nH]c2ccc(O)cc12.O=C(O)/C=C\C(=O)O (stereo not drawn) [alpha-Methyl-5-hydroxytryptamine maleate]
[7]
  Z-score: 0.02915

## CO/N=C(\C(=O)N[C@@H]1C(=O)N2C(C(=O)O)=C(CSc3nc(=O)c(=O)[nH]n3C)CS[C@H]12)c1csc(N)n1 [Ceftriaxone sodium]
[1]
  Raw Signal: 55787
[2]
  Z-score: -0.3745

— PMC5706701, “Development of a homogenous high-throughput assay for inositol hexakisphosphate kinase 1 activity” (PLoS ONE, 2017)
